Source: PubChem BioAssay AID256 (DTP/NCI, 2004)
“And” between values parts separate entries of the source, which are not always exact repeats. Identical values can stand only once. Inconclusive results and toxic doses are left out.

System: CD2F1 mice, L1210 leukemia ip, survival T/C
Test: NCI In Vivo Anticancer Drug Screen. Data for tumor model L1210 Leukemia (intraperitoneal) in CD2F1 (CDF1) mice
Conditions: higher = longer survival
In short: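 Implant tumor; dose compound or vehicle; measure endpoint in both groups; report treated divided by control.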

[1] = endpoint: mean survival time, dose: 100.0 mg/kg/injection, schedule: Q01DX009 (ip), vehicle: saline with Tween-80
[2] = endpoint: mean survival time, dose: 100.0 mg/kg/injection, schedule: Q01DX001 (ip), vehicle: saline with Tween-80
[3] = endpoint: mean survival time, dose: 200.0 mg/kg/injection, schedule: Q01DX001 (ip), vehicle: saline with Tween-80
[4] = endpoint: mean survival time, dose: 400.0 mg/kg/injection, schedule: Q01DX001 (ip), vehicle: saline with Tween-80
[5] = endpoint: mean survival time, dose: 75.0 mg/kg/injection, schedule: Q01DX001 (ip), vehicle: saline
[6] = endpoint: mean survival time, dose: 150.0 mg/kg/injection, schedule: Q01DX001 (ip), vehicle: saline
[7] = endpoint: mean survival time, dose: 100.0 mg/kg/injection, schedule: Q04DX003 (ip), vehicle: saline with Tween-80
[8] = endpoint: mean survival time, dose: 200.0 mg/kg/injection, schedule: Q04DX003 (ip), vehicle: saline with Tween-80
[9] = endpoint: mean survival time, dose: 400.0 mg/kg/injection, schedule: Q04DX003 (ip), vehicle: saline with Tween-80

## O=Cc1c(O)c2ccccc2[nH]c1=O
endpoint: mean survival time, dose: 6.25 mg/kg/injection, schedule: Q01DX009 (ip), vehicle: saline with Tween-80
  T/C: 101 % of control
endpoint: mean survival time, dose: 12.5 mg/kg/injection, schedule: Q01DX009 (ip), vehicle: saline with Tween-80
  T/C: 103 % of control
endpoint: mean survival time, dose: 25.0 mg/kg/injection, schedule: Q01DX009 (ip), vehicle: saline with Tween-80
  T/C: 103 % of control
endpoint: mean survival time, dose: 50.0 mg/kg/injection, schedule: Q01DX009 (ip), vehicle: saline with Tween-80
  T/C: 112 % of control
[1]
  T/C: 106 % of control
endpoint: median survival time, dose: 12.0 mg/kg/injection, schedule: Q01DX009 (ip), vehicle: Klucel (hydroxypropylcellulose) (HPC)
  T/C: 98 % of control
endpoint: median survival time, dose: 25.0 mg/kg/injection, schedule: Q01DX009 (ip), vehicle: Klucel (hydroxypropylcellulose) (HPC)
  T/C: 105 % of control
endpoint: median survival time, dose: 50.0 mg/kg/injection, schedule: Q01DX009 (ip), vehicle: Klucel (hydroxypropylcellulose) (HPC)
  T/C: 113 % of control
endpoint: median survival time, dose: 100.0 mg/kg/injection, schedule: Q01DX009 (ip), vehicle: Klucel (hydroxypropylcellulose) (HPC)
  T/C: 104 % of control

## COc1ccc(C(=O)OCC(=O)O)cc1
endpoint: mean survival time, dose: 50.0 mg/kg/injection, schedule: Q01DX001 (ip), vehicle: saline with Tween-80
  T/C: 102 % of control
[2]
  T/C: 98 % of control
[3]
  T/C: 102 % of control

## Nc1ccc2c(c1)C(=O)OC2(C(F)(F)F)C(F)(F)F
[2]
  T/C: 104 % of control
[3]
  T/C: 101 % of control
[4]
  T/C: 102 % of control

## COc1cc2c(c(OC)c1OC)-c1ccc(SC)c(=O)cc1[C@@H](NC(C)=O)CC2
endpoint: mean survival time, dose: 0.2 mg/kg/injection, schedule: Q01DX009 (ip), vehicle: Klucel (hydroxypropylcellulose) (HPC)
  T/C: 86 % of control
endpoint: mean survival time, dose: 0.75 mg/kg/injection, schedule: Q04DX002 (ip), vehicle: Klucel (hydroxypropylcellulose) (HPC)
  T/C: 121 % of control
endpoint: mean survival time, dose: 3.0 mg/kg/injection, schedule: Q04DX002 (ip), vehicle: Klucel (hydroxypropylcellulose) (HPC)
  T/C: 118 % of control and 95 % of control
endpoint: mean survival time, dose: 6.0 mg/kg/injection, schedule: Q04DX002 (ip), vehicle: Klucel (hydroxypropylcellulose) (HPC)
  T/C: 97 % of control

## CCC1(C#CCN2C(=O)c3ccccc3C2=O)C=CC2(CC1)OCCO2 (stereo not given)
[2]
  T/C: 101 % of control
[3]
  T/C: 93 % of control
[4]
  T/C: 91 % of control

## O=C(O)C/C=C/Br
[5]
  T/C: 100 % of control
[6]
  T/C: 100 % of control

## NCCCNCCCCNC(=O)C(O)NC(=O)CC(O)CCCCN=C(N)N (stereo not given)
endpoint: median survival time, dose: 1.56 mg/kg/injection, schedule: Q01DX009 (ip), vehicle: saline
  T/C: 161 % of control and 181 % of control
endpoint: median survival time, dose: 3.0 mg/kg/injection, schedule: Q01DX009 (ip), vehicle: saline
  T/C: 162 % of control
endpoint: median survival time, dose: 3.12 mg/kg/injection, schedule: Q01DX009 (ip), vehicle: saline
  T/C: 164 % of control and 168 % of control and 210 % of control
endpoint: median survival time, dose: 6.0 mg/kg/injection, schedule: Q01DX009 (ip), vehicle: saline
  T/C: 207 % of control
endpoint: median survival time, dose: 6.25 mg/kg/injection, schedule: Q01DX009 (ip), vehicle: saline
  T/C: 164 % of control and 191 % of control and 219 % of control
endpoint: median survival time, dose: 12.0 mg/kg/injection, schedule: Q01DX009 (ip), vehicle: saline
  T/C: 219 % of control
endpoint: median survival time, dose: 12.5 mg/kg/injection, schedule: Q01DX009 (ip), vehicle: saline
  T/C: 173 % of control and 196 % of control and 217 % of control
endpoint: median survival time, dose: 100.0 mg/kg/injection, schedule: Q01DX009 (ip), vehicle: saline
  T/C: 206 % of control and 235 % of control

## CC1(C)OCC(CO)([N+](=O)[O-])CO1
[7]
  T/C: 96 % of control

## N#CSCc1ccccc1Cl
endpoint: mean survival time, dose: 2.5 mg/kg/injection, schedule: Q01DX009 (ip), vehicle: saline sonified
  T/C: 91 % of control
endpoint: mean survival time, dose: 5.0 mg/kg/injection, schedule: Q01DX009 (ip), vehicle: saline sonified
  T/C: 96 % of control
endpoint: mean survival time, dose: 5.0 mg/kg/injection, schedule: Q04DX003 (ip), vehicle: saline with Tween-80
  T/C: 95 % of control
endpoint: mean survival time, dose: 10.0 mg/kg/injection, schedule: Q01DX009 (ip), vehicle: saline sonified
  T/C: 96 % of control
endpoint: mean survival time, dose: 10.0 mg/kg/injection, schedule: Q04DX003 (ip), vehicle: saline with Tween-80
  T/C: 86 % of control

## O=S(=O)(C#Cc1ccccc1)c1ccccc1
endpoint: mean survival time, dose: 25.0 mg/kg/injection, schedule: Q01DX001 (ip), vehicle: Klucel (hydroxypropylcellulose) (HPC)
  T/C: 95 % of control
endpoint: mean survival time, dose: 50.0 mg/kg/injection, schedule: Q01DX001 (ip), vehicle: Klucel (hydroxypropylcellulose) (HPC)
  T/C: 102 % of control
endpoint: mean survival time, dose: 100.0 mg/kg/injection, schedule: Q01DX001 (ip), vehicle: Klucel (hydroxypropylcellulose) (HPC)
  T/C: 100 % of control

## C1OC1CN1CCN(CC2CO2)CC1 (stereo not given)
endpoint: mean survival time, dose: 2.0 mg/kg/injection, schedule: Q03HX008 (ip), vehicle: saline
  T/C: 105 % of control
endpoint: mean survival time, dose: 2.0 mg/kg/injection, schedule: Q03HX016 (ip), vehicle: saline
  T/C: 98 % of control
endpoint: mean survival time, dose: 2.0 mg/kg/injection, schedule: Q03HX024 (ip), vehicle: saline
  T/C: 108 % of control
endpoint: mean survival time, dose: 4.0 mg/kg/injection, schedule: Q03HX008 (ip), vehicle: saline
  T/C: 108 % of control
endpoint: mean survival time, dose: 4.0 mg/kg/injection, schedule: Q03HX016 (ip), vehicle: saline
  T/C: 100 % of control
endpoint: mean survival time, dose: 4.0 mg/kg/injection, schedule: Q03HX024 (ip), vehicle: saline
  T/C: 121 % of control
endpoint: mean survival time, dose: 8.0 mg/kg/injection, schedule: Q01DX009 (ip), vehicle: saline
  T/C: 121 % of control
endpoint: mean survival time, dose: 8.0 mg/kg/injection, schedule: Q01DX009 (sc), vehicle: saline
  T/C: 108 % of control
endpoint: mean survival time, dose: 16.0 mg/kg/injection, schedule: Q01DX001 (ip), vehicle: saline
  T/C: 113 % of control
endpoint: mean survival time, dose: 16.0 mg/kg/injection, schedule: Q01DX001 (sc), vehicle: saline
  T/C: 105 % of control
endpoint: mean survival time, dose: 16.0 mg/kg/injection, schedule: Q04DX003 (ip), vehicle: saline
  T/C: 120 % of control
endpoint: mean survival time, dose: 16.0 mg/kg/injection, schedule: Q08DX002 (ip), vehicle: saline
  T/C: 103 % of control
endpoint: mean survival time, dose: 32.0 mg/kg/injection, schedule: Q01DX001 (sc), vehicle: saline
  T/C: 108 % of control
endpoint: mean survival time, dose: 32.0 mg/kg/injection, schedule: Q01DX009 (ip), vehicle: saline
  T/C: 194 % of control
endpoint: mean survival time, dose: 32.0 mg/kg/injection, schedule: Q08DX002 (ip), vehicle: saline
  T/C: 120 % of control
endpoint: mean survival time, dose: 64.0 mg/kg/injection, schedule: Q01DX001 (ip), vehicle: saline
  T/C: 152 % of control
endpoint: mean survival time, dose: 64.0 mg/kg/injection, schedule: Q01DX001 (sc), vehicle: saline
  T/C: 122 % of control
endpoint: mean survival time, dose: 64.0 mg/kg/injection, schedule: Q01DX009 (ip), vehicle: saline
  T/C: 92 % of control
endpoint: mean survival time, dose: 64.0 mg/kg/injection, schedule: Q01DX009 (sc), vehicle: saline
  T/C: 88 % of control
endpoint: mean survival time, dose: 64.0 mg/kg/injection, schedule: Q04DX003 (ip), vehicle: saline
  T/C: 175 % of control
endpoint: mean survival time, dose: 64.0 mg/kg/injection, schedule: Q08DX002 (ip), vehicle: saline
  T/C: 156 % of control
endpoint: mean survival time, dose: 128.0 mg/kg/injection, schedule: Q01DX001 (ip), vehicle: saline
  T/C: 201 % of control
endpoint: mean survival time, dose: 128.0 mg/kg/injection, schedule: Q04DX003 (ip), vehicle: saline
  T/C: 88 % of control
endpoint: mean survival time, dose: 128.0 mg/kg/injection, schedule: Q08DX002 (ip), vehicle: saline
  T/C: 190 % of control

## C=C(Br)CNC(=O)C(=O)OCC
[7]
  T/C: 105 % of control

## CCOC(=O)CC1CCCCC1CC(=O)OCC (stereo not given)
endpoint: mean survival time, dose: 37.5 mg/kg/injection, schedule: Q01DX009 (ip), vehicle: saline
  T/C: 95 % of control
endpoint: mean survival time, dose: 75.0 mg/kg/injection, schedule: Q01DX009 (ip), vehicle: saline
  T/C: 98 % of control
endpoint: mean survival time, dose: 75.0 mg/kg/injection, schedule: Q04DX003 (ip), vehicle: saline
  T/C: 97 % of control
endpoint: mean survival time, dose: 150.0 mg/kg/injection, schedule: Q01DX009 (ip), vehicle: saline
  T/C: 100 % of control
endpoint: mean survival time, dose: 150.0 mg/kg/injection, schedule: Q04DX003 (ip), vehicle: saline
  T/C: 103 % of control
endpoint: mean survival time, dose: 300.0 mg/kg/injection, schedule: Q04DX003 (ip), vehicle: saline
  T/C: 101 % of control

## CC(C)CCNCCO
[5]
  T/C: 102 % of control
[6]
  T/C: 102 % of control

## Cc1c2ccccc2c(CSCC(N)C(=O)O)c2ccccc12 (stereo not given)
[7]
  T/C: 89 % of control
[8]
  T/C: 107 % of control
[9]
  T/C: 98 % of control

## C1CC[N-]CC1.Oc1ccccc1C=NCCN=Cc1ccccc1O.[Co]
endpoint: mean survival time, dose: 1.56 mg/kg/injection, schedule: Q04DX002 (ip), vehicle: saline with Tween-80
  T/C: 109 % of control
endpoint: mean survival time, dose: 3.13 mg/kg/injection, schedule: Q04DX002 (ip), vehicle: saline with Tween-80
  T/C: 98 % of control

## Clc1ccccc1/C=C1/c2ccccc2-c2nc3ccccc3cc21
[1]
  T/C: 97 % of control
[7]
  T/C: 89 % of control
endpoint: mean survival time, dose: 200.0 mg/kg/injection, schedule: Q01DX009 (ip), vehicle: saline with Tween-80
  T/C: 105 % of control
[8]
  T/C: 100 % of control
endpoint: mean survival time, dose: 400.0 mg/kg/injection, schedule: Q01DX009 (ip), vehicle: saline with Tween-80
  T/C: 102 % of control
[9]
  T/C: 95 % of control
